Legend:
Type in all cases: in vivo
Chenopodium = test: Post-emergence test; conditions: greenhouse, scored after three weeks
In short: (§1)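 Plants of 5-15 cm height were sprayed post-emergence with aqueous dilutions of an acetone/emulsifier concentrate, spray volume 1000 l water/ha. Visual % damage relative to untreated control was recorded three weeks later; 0% = like control, 100% = total destruction.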

Datura [1] = test: Post-emergence test; conditions: greenhouse, 125 g of ai./ha, scored after three weeks
In short: as §1

Digitaria [2] = test: Post-emergence test; conditions: greenhouse, 125 g of ai./ha, scored after three weeks
In short: as §1

Maize [3] = test: Post-emergence test; conditions: greenhouse, 125 g of ai./ha, scored after three weeks
In short: as §1

Polygonum = test: Post-emergence test; conditions: greenhouse, 125 g of ai./ha, scored after three weeks
In short: as §1

Setaria [4] = test: Post-emergence test; conditions: greenhouse, scored after three weeks
In short: as §1

Viola = test: Post-emergence test; conditions: greenhouse, scored after three weeks
In short: as §1

Wheat = test: Post-emergence test; conditions: greenhouse, scored after three weeks
In short: as §1

Abutilon = test: Pre-emergence test; conditions: greenhouse, scored after three weeks
Procedure: (§2) Pre-emergence Test Solvent: 5 parts by weight of acetone Emulsifier: 1 part by weight of alkylaryl polyglycol ether To produce a suitable preparation of active compound, 1 part by weight of active compound is mixed with the stated amount of solvent, the stated amount of emulsifier is added and the concentrate is diluted with water to the desired concentration. Seeds of the test plants are sown in normal soil. After about 24 hours, the soil is watered with the preparation of active compound. The amount of water per unit area is advantageously kept constant. The concentration of active compound in the preparation is immaterial, only the application rate of active compound per unit area matters. After three weeks, the degree of damage to the plants is scored visually in % damage in comparison to the development of the untreated control. The figures denote: 0%=no effect (like untreated control) 100%=total destruction

Alopecurus = test: Pre-emergence test; conditions: greenhouse, scored after three weeks
Procedure: as §2

Datura [5] = test: Pre-emergence test; conditions: greenhouse, 500 g of ai./ha, scored after three weeks
Procedure: as §2

Digitaria [6] = test: Pre-emergence test; conditions: greenhouse, 500 g of ai./ha, scored after three weeks
Procedure: as §2

Echinochloa = test: Pre-emergence test; conditions: greenhouse, 500 g of ai./ha, scored after three weeks
Procedure: as §2

Maize [7] = test: Pre-emergence test; conditions: greenhouse, scored after three weeks
Procedure: as §2

Matricaria = test: Pre-emergence test; conditions: greenhouse, 500 g of ai./ha, scored after three weeks
Procedure: as §2

Amaranthus [8] = test: Post-emergence test; conditions: greenhouse, 250 g of ai./ha, scored after three weeks
In short: as §1

Stellaria = test: Post-emergence test; conditions: greenhouse, 250 g of ai./ha, scored after three weeks
In short: as §1

Amaranthus [9] = test: Pre-emergence test; conditions: greenhouse, 1000 g of ai./ha, scored after three weeks
Procedure: as §2

Galium = test: Pre-emergence test; conditions: greenhouse, 1000 g of ai./ha, scored after three weeks
Procedure: as §2

Setaria [10] = test: Pre-emergence test; conditions: greenhouse, 1000 g of ai./ha, scored after three weeks
Procedure: as §2

Sinapis = test: Pre-emergence test; conditions: greenhouse, 1000 g of ai./ha, scored after three weeks
Procedure: as §2

CC(F)c1nc(N)nc(NC(C)c2ccc(Cl)cc2)n1 (stereo not shown) [drawing 104]
% damage, Chenopodium (Chenopodium; 125 g of ai./ha): 100%
% damage, Datura (Datura [1]): 100%
% damage, Digitaria (Digitaria [2]): 80%
% damage, Maize (Maize [3]): 10%
% damage, Polygonum (Polygonum): 100%
% damage, Setaria (Setaria [4]; 125 g of ai./ha): 90%
% damage, Viola (Viola; 125 g of ai./ha): 100%
plant injury at 125 g/ha (Wheat; Triticum aestivum, 504 h, 125 g of ai./ha, read-out: % damage, Wheat): 0%

CC(F)c1nc(N)nc(NC(C)c2ccc(Cl)cc2)n1 (stereo not shown) [drawing 93]
% damage, Abutilon (Abutilon; 500 g of ai./ha): 100%
% damage, Alopecurus (Alopecurus; 500 g of ai./ha): 100%
% damage, Datura (Datura [5]): 100%
% damage, Digitaria (Digitaria [6]): 100%
% damage, Echinochloa (Echinochloa): 100%
% damage, Maize (Maize [7]; 500 g of ai./ha): 0%
% damage, Matricaria (Matricaria): 100%

CCC(Nc1nc(N)nc(C(F)(F)F)n1)c1ccc(Cl)cc1 (stereo not shown) [drawing 142]
% damage, Amaranthus (Amaranthus [8]): 100%
% damage, Chenopodium (Chenopodium; 250 g of ai./ha): 100%
% damage, Setaria (Setaria [4]; 250 g of ai./ha): 100%
% damage, Stellaria (Stellaria): 100%
% damage, Viola (Viola; 250 g of ai./ha): 100%
% damage, Wheat (Wheat; 250 g of ai./ha): 10%

CC(Nc1nc(N)nc(C(C)(C)F)n1)c1ccc(Cl)cc1 (stereo not shown) [drawing 96]
% damage, Abutilon (Abutilon; 1000 g of ai./ha): 100%
% damage, Alopecurus (Alopecurus; 1000 g of ai./ha): 100%
% damage, Amaranthus (Amaranthus [9]): 100%
% damage, Galium (Galium): 100%
% damage, Maize (Maize [7]; 1000 g of ai./ha): 20%
% damage, Setaria (Setaria [10]): 100%
% damage, Sinapis (Sinapis): 100%

Source: patent publication US6440903B1, “Substituted 2,4-diamino-1,3,5-triazines as herbicides” (Bayer Aktiengesellschaft, priority 1996, dated 2002)
